± gives the expanded uncertainty stated by the source.
Assay: xn = mol fraction of the nth substance listed
Details: Liquid

COC(=O)OC [dimethyl carbonate] + C1CCCCC1
mass density [kg/m3]
Details	x1 = 0.1	x1 = 0.2	x1 = 0.3	x1 = 0.4	x1 = 0.5	x1 = 0.6	x1 = 0.7	x1 = 0.8	x1 = 0.9	x1 = 1
293.15 K, 100 kPa	797.9 ± 0.5	818.3 ± 0.5	842.3 ± 0.5	866 ± 0.5	893.7 ± 0.5	923.6 ± 0.5	957.5 ± 0.4	991 ± 0.5	1030.4 ± 0.4	1069.8 ± 0.4
293.15 K, 5000 kPa	802.2 ± 0.7	822.7 ± 0.6	846.9 ± 0.6	870.7 ± 0.6	898.5 ± 0.5	928.4 ± 0.5	962.3 ± 0.4	995.8 ± 0.4	1035.1 ± 0.4	1074.4 ± 0.5
293.15 K, 10000 kPa	806.2 ± 0.8	827 ± 0.7	851.2 ± 0.7	875.3 ± 0.6	903.1 ± 0.6	933 ± 0.5	966.9 ± 0.4	1000.3 ± 0.4	1039.5 ± 0.4	1078.6 ± 0.5
293.15 K, 20000 kPa	813.9 ± 1	835 ± 1	859.6 ± 0.8	883.9 ± 0.8	911.8 ± 0.6	941.8 ± 0.5	975.7 ± 0.4	1009 ± 0.4	1048 ± 0.5	1086.9 ± 0.6
293.15 K, 30000 kPa	821.3 ± 1.3	842.7 ± 1.2	867.5 ± 1	892 ± 0.9	920 ± 0.7	950 ± 0.6	983.8 ± 0.4	1017.1 ± 0.4	1055.8 ± 0.6	1094.5 ± 0.8
293.15 K, 40000 kPa	828.5 ± 1.5	850.2 ± 1.3	875.2 ± 1.2	899.8 ± 1	928 ± 0.8	958 ± 0.6	991.8 ± 0.4	1025 ± 0.5	1063.5 ± 0.7	1101.9 ± 1
298.15 K, 100 kPa	792.3 ± 0.5	812.5 ± 0.5	836.3 ± 0.5	860 ± 0.5	887.4 ± 0.5	917 ± 0.5	950.8 ± 0.4	984.2 ± 0.4	1023.2 ± 0.4	1063.2 ± 0.4
298.15 K, 5000 kPa	796.9 ± 0.7	817.3 ± 0.6	841.3 ± 0.6	865.1 ± 0.6	892.6 ± 0.5	–	–	–	–	–
